EC50 data for 14 compounds are collected here from patent publication US20140221361A1, “C-19 MODIFIED TRITERPENOIDS WITH HIV MATURATION INHIBITORY ACTIVITY” (priority 2013, published 2014).

One test deals with recombinant NL4-3 virus (Renilla luciferase in nef, Gag P373S). Briefly: HIV cell culture assay (luciferase reporter, MT-2 cells). The settings on record: MT-2 cells infected for 4-5 days with NLRluc recombinants; luciferase activity; serial dilutions of inhibitor. Format: cell-based, HIV-1. The method, then:
MT-2 cells and 293T cells were obtained from the NIH AIDS Research and Reference Reagent Program. MT-2 cells were propagated in RPMI 1640 media supplemented with 10% heat inactivated fetal bovine serum, […]. The 293T cells were propagated in DMEM media supplemented with 10% heat inactivated fetal bovine serum (FBS), 100 units/ml penicillin G and 100 µg/ml streptomycin. The proviral DNA clone of NL4-3 was obtained from the NIH AIDS Research and Reference Reagent Program. A recombinant NL4-3 virus, in which a section of the nef gene from NL4-3 was replaced with the Renilla luciferase gene, was used as a reference virus. In addition, residue Gag P373 was converted to P373S. Briefly, the recombinant virus was prepared by transfection of the altered proviral clone of NL4-3. Transfections were performed in 293T cells using LipofectAMINE PLUS from Invitrogen (Carlsbad, Calif.), according to manufacturer's instruction. The virus was titered in MT-2 cells using luciferase enzyme activity as a marker. Luciferase was quantitated using the Dual Luciferase kit from Promega (Madison, Wis.), with modifications to the manufacturer's protocol. The diluted Passive Lysis solution was pre-mixed with the re-suspended Luciferase Assay Reagent and the re-suspended Stop & Glo Substrate (2:1:1 ratio). Fifty (50) μL of the mixture was added to each aspirated well on assay plates and luciferase activity was measured immediately on a Wallac TriLux (Perkin-Elmer). Antiviral activities of inhibitors toward the recombinant virus were quantified by measuring luciferase activity in cells infected for 4-5 days with NLRluc recombinants in the presence serial dilutions of the inhibitor.
A general note: Reporter assays use an easily measured gene product as a stand-in for the process of interest.
A word on the EC50: it is the concentration that produces a half-maximal response. For the compound `CC(C(=O)O)[C@@H]1CC[C@]2(NCCN3CCS(=O)(=O)CC3)CC[C@]3(C)[C@H](CC[C@@H]4[C@@]5(C)CC=C(c6ccc(C(=O)O)c(F)c6)C(C)(C)[C@@H]5CC[C@]43C)[C@@H]12` (stereo partly drawn) [Example A6, 4-((1R,3aS,5aR,5bR,7aR,11aS,11bR,13aR,13bR)-1-(1-carboxyethyl)-3a-((2-(1,1-dioxidothiomorpholino)ethyl)amino)-5a,5b,8,8,11a-pentamethyl-2,3,3a,4,5,5a,5b,6,7,7a,8,11,11a,11b,12,13,13a,13b-octadecahydro-1H-cyclopenta[a]chrysen-9-yl)-2-fluorobenzoic acid], the EC50 came out at 390 nM.

As to `CC(C(=O)O)[C@@H]1CC[C@]2(NCCN3CCS(=O)(=O)CC3)CC[C@]3(C)[C@H](CC[C@@H]4[C@@]5(C)CC=C(c6ccc(C(=O)O)c(F)c6)C(C)(C)[C@@H]5CC[C@]43C)[C@@H]12` (stereo partly drawn) [Example A7, 4-((1R,3aS,5aR,5bR,7aR,11aS,11bR,13aR,13bR)-1-(1-carboxyethyl)-3a-((2-(1,1-dioxidothiomorpholino)ethyl)amino)-5a,5b,8,8,11a-pentamethyl-2,3,3a,4,5,5a,5b,6,7,7a,8,11,11a,11b,12,13,13a,13b-octadecahydro-1H-cyclopenta[a]chrysen-9-yl)-2-fluorobenzoic acid], the EC50 was determined as 110 nM.

The test is the same for the next values; noted with them: Renilla, NL43, MT-2 cells infected for 4-5 days with NLRluc recombinants; luciferase activity; serial dilutions of inhibitor.
Regarding `C=C(CN(C)C(=O)CCC(=O)OC)[C@@H]1CC[C@]2(C(=O)NCCN(C)C)CC[C@]3(C)[C@H](CC[C@@H]4[C@@]5(C)CC=C(c6ccc(C(=O)O)cc6)C(C)(C)[C@@H]5CC[C@]43C)[C@@H]12` [Example 18, 4-((1R,3aS,5aR,5bR,7aR,11aS,11bR,13aR,13bS)-3a-(2-(dimethylamino)ethylcarbamoyl)-1-(3-(4-methoxy-N-methyl-4-oxobutanamido)prop-1-en-2-yl)-5a,5b,8,8,11a-pentamethyl-2,3,3a,4,5,5a,5b,6,7,7a,8,11,11a,11b,12,13,13a,13b-octadecahydro-1H-cyclopenta[a]chrysen-9-yl)benzoic acid], the EC50 was found to be 1.87 nM.

As to `CC(=CC(=O)O)[C@@H]1CC[C@]2(C(=O)NCCN(C)C)CC[C@]3(C)[C@H](CC[C@@H]4[C@@]5(C)CC[C@H](c6ccc(C(=O)O)cc6)C(C)(C)[C@@H]5CC[C@]43C)[C@@H]12` [Example 19, 4-((1R,3aS,5aR,5bR,7aS,9S,11aS,11bR,13aR,13bR)-1-(1-carboxyprop-1-en-2-yl)-3a-((2-(dimethylamino)ethyl)carbamoyl)-5a,5b,8,8,11a-pentamethylicosahydro-1H-cyclopenta[a]chrysen-9-yl)benzoic acid], the EC50 stood at 20 nM. Regarding `CC(C)(O)[C@@H]1CC[C@]2(NCCN3CCS(=O)(=O)CC3)CC[C@]3(C)[C@H](CC[C@@H]4[C@@]5(C)CC=C(C6=CCC(C(=O)O)CC6)C(C)(C)[C@@H]5CC[C@]43C)[C@@H]12` (stereo partly drawn) [Example 22, 4-((1R,3aS,5aR,5bR,7aR,11aS,11bR,13aR,13bS)-3a-((2-(1,1-dioxidothiomorpholino)ethyl)amino)-1-(2-hydroxypropan-2-yl)-5a,5b,8,8,11a-pentamethyl-2,3,3a,4,5,5a,5b,6,7,7a,8,11,11a,11b,12,13,13a,13b-octadecahydro-1H-cyclopenta[a]chrysen-9-yl)cyclohex-3-enecarboxylic acid], the EC50 turned out to be 0.519 nM. On the same count and under the same terms, next, `CC(C)(O)[C@@H]1CC[C@]2(NCCN3CC4CC3CO4)CC[C@]3(C)[C@H](CC[C@@H]4[C@@]5(C)CC=C(C6=CCC(C(=O)O)CC6)C(C)(C)[C@@H]5CC[C@]43C)[C@@H]12` (stereo partly drawn) [Example 23, 4-((1R,3aS,5aR,5bR,7aR,11aS,11bR,13aR,13bS)-3a-((2-(2-oxa-5-azabicyclo[2.2.1]heptan-5-yl)ethyl)amino)-1-(2-hydroxypropan-2-yl)-5a,5b,8,8,11a-pentamethyl-2,3,3a,4,5,5a,5b,6,7,7a,8,11,11a,11b,12,13,13a,13b-octadecahydro-1H-cyclopenta[a]chrysen-9-yl)cyclohex-3-enecarboxylic acid]: 0.779 nM; `C=C(CO)[C@@H]1CC[C@]2(NC(=O)OC(C)(C)C)CC[C@]3(C)[C@H](CC[C@@H]4[C@@]5(C)CC=C(c6ccc(C(=O)O)c(F)c6)C(C)(C)[C@@H]5CC[C@]43C)[C@@H]12` [Example A1, 4-((1R,3aS,5aR,5bR,7aR,11aS,11bR,13aR,13bS)-3a-((tert-butoxycarbonyl)amino)-1-(3-hydroxyprop-1-en-2-yl)-5a,5b,8,8,11a-pentamethyl-2,3,3a,4,5,5a,5b,6,7,7a,8,11,11a,11b,12,13,13a,13b-octadecahydro-1H-cyclopenta[a]chrysen-9-yl)-2-fluorobenzoic acid]: 20 nM. Turning to `C=C(CO)[C@@H]1CC[C@]2(N)CC[C@]3(C)[C@H](CC[C@@H]4[C@@]5(C)CC=C(c6ccc(C(=O)O)c(F)c6)C(C)(C)[C@@H]5CC[C@]43C)[C@@H]12` [Example A2], the EC50 worked out at 10 nM. For the compound `CC1([C@@H]2CC[C@]3(NCCN4CCS(=O)(=O)CC4)CC[C@]4(C)[C@H](CC[C@@H]5[C@@]6(C)CC=C(c7ccc(C(=O)O)c(F)c7)C(C)(C)[C@@H]6CC[C@]54C)[C@@H]23)CO1` (stereo partly drawn) [Example A3, 4-((1R,3aS,5aR,5bR,7aR,11aS,11bR,13aR,13bS)-3a-((2-(1,1-dioxidothiomorpholino)ethyl)amino)-5a,5b,8,8,11a-pentamethyl-1-(2-methyloxiran-2-yl)-2,3,3a,4,5,5a,5b,6,7,7a,8,11,11a,11b,12,13,13a,13b-octadecahydro-1H-cyclopenta[a]chrysen-9-yl)-2-fluorobenzoic acid], the concentration giving a half-maximal response (EC50) was found to be 10 nM.

Take `CC(C)(C)OC(=O)N[C@@H]1CC[C@]2(C(=O)O)CC[C@]3(C)[C@H](CC[C@@H]4[C@@]5(C)CC=C(C6=CCC(C(=O)O)CC6)C(C)(C)[C@@H]5CC[C@]43C)[C@@H]12` (stereo partly drawn) [Example A8, (1R,3aR,5aR,5bR,7aR,11aS,11bR,13aR,13bR)-1-((tert-butoxycarbonyl)amino)-9-(4-carboxycyclohex-1-en-1-yl)-5a,5b,8,8,11a-pentamethyl-2,3,3a,4,5,5a,5b,6,7,7a,8,11,11a,11b,12,13,13a,13b-octadecahydro-1H-cyclopenta[a]chrysene-3a-carboxylic acid]: the EC50 came out at 6.56 nM.

With `CN(C)CCNC(=O)[C@]12CC[C@@H](NC(=O)OC(C)(C)C)[C@@H]1[C@H]1CC[C@@H]3[C@@]4(C)CC=C(C5=CCC(C(=O)O)CC5)C(C)(C)[C@@H]4CC[C@@]3(C)[C@]1(C)CC2` (stereo partly drawn) [Example A9, 4-((1R,3aR,5aR,5bR,7aR,11aS,11bR,13aR,13bR)-1-((tert-butoxycarbonyl)amino)-3a-((2-(dimethylamino)ethyl)carbamoyl)-5a,5b,8,8,11a-pentamethyl-2,3,3a,4,5,5a,5b,6,7,7a,8,11,11a,11b,12,13,13a,13b-octadecahydro-1H-cyclopenta[a]chrysen-9-yl)cyclohex-3-enecarboxylic acid], the EC50 was 1.15 nM. Still for that read-out and setting: next, `CC(C)(O)[C@@H]1CC[C@]2(NCCN3CCS(=O)(=O)CC3)CC[C@]3(C)[C@H](CC[C@@H]4[C@@]5(C)CC=C(c6ccc(C(=O)O)cc6)C(C)(C)[C@@H]5CC[C@]43C)[C@@H]12` [Example B3, 4-((1R,3aS,5aR,5bR,7aR,11aS,11bR,13aR,13bS)-3a-((2-(1,1-dioxidothiomorpholino)ethyl)amino)-1-(2-hydroxypropan-2-yl)-5a,5b,8,8,11a-pentamethyl-2,3,3a,4,5,5a,5b,6,7,7a,8,11,11a,11b,12,13,13a,13b-octadecahydro-1H-cyclopenta[a]chrysen-9-yl)benzoic acid]: 1.3 nM. The same measure, in the same setting: next, `COC(C)(C)[C@@H]1CC[C@]2(NCCN3CCS(=O)(=O)CC3)CC[C@]3(C)[C@H](CC[C@@H]4[C@@]5(C)CC=C(c6ccc(C(=O)O)cc6)C(C)(C)[C@@H]5CC[C@]43C)[C@@H]12` [Example B4, 4-((1R,3aS,5aR,5bR,7aR,11aS,11bR,13aR,13bS)-3a-((2-(1,1-dioxidothiomorpholino)ethyl)amino)-1-(2-methoxypropan-2-yl)-5a,5b,8,8,11a-pentamethyl-2,3,3a,4,5,5a,5b,6,7,7a,8,11,11a,11b,12,13,13a,13b-octadecahydro-1H-cyclopenta[a]chrysen-9-yl)benzoic acid]: 2.06 nM. On the same count and under the same terms, next, `COCC(C)[C@@H]1CC[C@]2(NCCN3CCS(=O)(=O)CC3)CC[C@]3(C)[C@H](CC[C@@H]4[C@@]5(C)CC=C(c6ccc(C(=O)O)cc6)C(C)(C)[C@@H]5CC[C@]43C)[C@@H]12` (stereo partly drawn) [Example B7, 4-((1R,3aS,5aR,5bR,7aR,11aS,11bR,13aR,13bR)-3a-((2-(1,1-dioxidothiomorpholino)ethyl)amino)-1-(1-methoxypropan-2-yl)-5a,5b,8,8,11a-pentamethyl-2,3,3a,4,5,5a,5b,6,7,7a,8,11,11a,11b,12,13,13a,13b-octadecahydro-1H-cyclopenta[a]chrysen-9-yl)benzoic acid]: 0.945 nM.
